The text below walks through data of paper PMC2120548 (The Journal of Cell Biology, 1995).

The subject of test [1] is MG-63 osteosarcoma cells, vitronectin. Nature of the test: Cell attachment assay on vitronectin. The format is cell-based. Conditions: MG-63 cells, 30 min, crystal violet OD600, mean of triplicate wells.
Test [2] concerns MG-63 osteosarcoma cells, fibronectin. Nature of the test: Cell attachment assay on fibronectin. In kind it is cell-based. Conditions: MG-63 cells, 30 min, crystal violet OD600, mean of triplicate wells.
Test [3] relates to MG-63 osteosarcoma cells, type IV collagen. In words: Cell attachment assay on type IV collagen. In kind it is cell-based. As to conditions: MG-63 cells, 30 min, crystal violet OD600, mean of triplicate wells.
In test [4] the test system is fibronectin type III10 (RGD-containing) fragments. Nature of the test: Panning of phage display peptide libraries on fibronectin fragments. In kind it is binding. As to conditions: Table I.
The test system of the next test is fibronectin. Nature of the test: Affinity chromatography on *[…]*-Sepharose. The format is binding, Human.
Test [5] can be described thus: Fibronectin on control peptide column. The format is binding. As to conditions: not shown.
Test [6] is described as follows: Inhibition of RGD-phage binding to immobilized beta 3.
For the next test, the system named is RGD-mimic OPG2 antibody. Conditions: aspartic acid residues of DDLW mutated to alanines; ref Bajt et al. (3); cited from earlier work.
The next test concerns fibrinogen. Conditions: aspartic acid residues of DDLW mutated to alanines; cited from earlier work.
Test [7] has as its system fragment encompassing the alternatively spliced cell attachment domain of fibronectin. In words: Phage attachment assay on alternatively spliced fibronectin fragment. In kind it is binding. As to conditions: not shown.
Test [8] has as its system control proteins (BSA and GST). Nature of the test: Phage attachment assay on control proteins. The format is binding. Conditions: microtiter wells, OD600, mean of triplicates.
Test [9] deals with fibronectin fragment III8,9 (RGD-). In words: Phage attachment assay on fibronectin fragment III8,9. The format is binding. As to conditions: microtiter wells, OD600, mean of triplicates.
In test [10] the test system is fibronectin and fibronectin fragments containing the RGD sequence (III10). Nature of the test: Phage attachment assay on fibronectin and RGD-containing fibronectin fragments. The format is binding, Human.
Test [11] relates to beta 3 subunit of purified alpha IIb beta 3. In words: Immunoblot of purified alpha IIb beta 3. In kind it is binding.
Test [12] is described as follows: Inhibition of WDDGWL-phage attachment to immobilized peptides. Conditions: soluble peptide 1 mM; mean of triplicate wells, Fig. 3 b. In kind it is binding.
Another test can be described thus: RGD-phage. In kind it is binding. As to conditions: peptide coated at 20 μg/ml; mean of triplicate wells.
In test [13] the test system is III8-11 fibronectin fragment / WDDGWL-phage. Nature of the test: Inhibition of WDDGWL-phage binding to fibronectin fragment by peptides. Conditions: soluble competitor, microtiter assay, Fig. 2 b.
Test [14] deals with beta 1 and beta 3 integrin subunits in MG-63 total cell extracts. In words: Immunoblot of MG-63 cell extracts. The format is binding. Conditions: peptide 100 μM, Fig. 7 b lanes C and D.
Test [15] is described as follows: Inhibition of RGD-phage attachment to immobilized peptides. The format is binding. As to conditions: soluble peptide 1 mM; mean of triplicate wells, Fig. 3 c.
Test [16] is described as follows: WDDGWL-phage attachment to immobilized peptide. In kind it is binding. As to conditions: peptide coated at 20 μg/ml; mean of triplicate wells.

Ends that are not written are not given here.

In the case of “*CVRLNSLAC* (disulfide) [reference compound]”, the “inhibition of cell attachment” value in [1], in test [2] and in test [3] was “no effect on any of the substrates” each time.

On to WDDLWWL, for which, in [4] (RGD elution), the “number of phage displaying the same amino acid motif” value (shortened to “number”) was 10.

Take BSA: control protein: the “retention on *CWDDGWLC*-Sepharose column” value in the test with fibronectin (proteins other than fibronectin) is on record as “not retained”.

Turning to DGWLGF, the “number” value in test [4] (direct infection of wells) was found to be 2.

In the case of WDDGWM, in test [4] (RGD elution), the “number” value amounted to 4.

Consider GRGESP, for which the “elution of fibronectin from *CWDDGWLC*-Sepharose” value in the test with fibronectin (eluting peptide 1 mM, SDS-PAGE) is “not with the GRGESP peptide”.

On to Fibronectin, for which the “retention on control unrelated peptide column” value in test [5] was “not retained”.

Turning to PDDLWWL, the “number” value in test [4] (direct infection of wells) was determined as 3.

With `O=C(O)CN(CCN(CC(=O)O)CC(=O)O)CC(=O)O` [EDTA, reference compound], the “effect of EDTA on RGD-phage binding” value in [6] (peptides coated in the presence of cations, EDTA 10 mM) is listed as “did not block phage binding”.

“mutant alIb[33 integrin: integrin with aspartic acid residues of DDLW mutated to alanines (ref 3)”: in the test on RGD-mimic OPG2 antibody, the “binding to OPG2 antibody” value is given as “lost”. Further, in the test with fibrinogen, the binding to fibrinogen result is “did not appreciably affect the binding”.

In the case of LVWLLVQFY, the “number” value in [4] (EDTA elution) was 2.

Regarding SWDDGWL, the “number” value in test [4] (direct infection of wells) was 6.

Take DYWLGF: the “number” value in [4] (direct infection of wells) came to 1.

As to “WDDGWL (disulfide (positions not given here))”, the figures for the “number” value in test [4] (EDTA elution), in test [4] (RGD elution) and in test [4] (direct infection of wells) were 21, 131 and 45, respectively. Moreover, the phage binding result in test [7], in test [8] and in [9] was “minimal” in each case. The “divalent cation requirement of phage binding” value in [10] is given as “did not require divalent cations”.

WDDGLM: the “number” value in [4] (RGD elution) was 7.

On to *CWDDGWLC* (disulfide), for which the “effect of peptide on reactivity of positive control antibodies” value in test [11] (Fig. 7 a or b, also MG-63 extracts) was “no ef- fect on the reactivity of the positive control antibodies”. Moreover, the “reactivity of the anti-*CWDDGWLC* serum after preincubation with peptide” value in test [11] (peptide 100 μM, Fig. 7 a lanes C and D) is given as “abrogated”. Besides, the “inhibition of WDDGWL-phage binding to immobilized peptide” value in test [12] is listed as “blocked the WDDGWL-phage binding”. In addition, the entries for the “inhibition of cell attachment” value in test [1], in test [2] and in test [3] were “inhibited cell adhesion”, “inhibited cell adhesion” and “not on collagen”, respectively. For the same compound, in “RGD-phage”, the “binding of RGD-phage to immobilized peptide” value is listed as “can bind to the *CWDDGWLC*-containing”. For the same compound, the “inhibition of WDDGWL-phage binding” value in [13] was “in a dose-dependent manner”. For the same compound, the “inhibition of RGD-phage binding” value in test [6] (soluble peptide, Fig. 6 b) was “blocked”. Besides, the “reactivity of the anti-WDDGWL serum after preincubation with peptide” value in test [14] is “abrogated”. Further, the “inhibition of RGD-phage binding to immobilized peptide” value in [15] is “inhibited by both peptides”. For the same compound, in the test with fibronectin (fibronectin 2 mg, TBS, SDS-PAGE), the “binding of fibronectin to peptide-Sepharose” value is listed as “fibronectin bound to *CWDDGWLC*-Sepharose”.

As for FVLWLV, in test [4] (direct infection of wells), the “number” value was determined as 1.

Turning to QRIVLGFT, the “number” value in [4] (direct infection of wells) was 1.

Regarding GNRLR, the “number” value in [4] (direct infection of wells) came to 1.

With “A*CRGDGWMC*G (disulfide) [reference compound]”, the “inhibition of WDDGWL-phage binding to immobilized peptide” value in [12] is “blocked the WDDGWL-phage binding”. In [16], the “binding of WDDGWL-phage to immobilized peptide” value is recorded as “WDDGWL-phage can bind to the RGD-containing peptide”. Also, the “binding of RGD-phage to immobilized peptide” value in the test “RGD-phage” is “slight, but consistent, binding”. The “inhibition of WDDGWL-phage binding” value in test [13] is on record as “in a dose-dependent manner”. Also, in [15], the “inhibition of RGD-phage binding to immobilized peptide” value was “inhibited by both peptides”.

As for TLRFQRS, in [4] (EDTA elution), the “number” value is on record as 1.
